pEC50: −log10 of the molar value.

In this assay the target is T1, human TPO receptor (hTPOR) (Homo sapiens, UniProt P40238).
T1 construct: expressed in transfected cells; host or cells: BaF-B03 (murine IL-3 dependent cell line)
T1 sequence (P40238 26-635): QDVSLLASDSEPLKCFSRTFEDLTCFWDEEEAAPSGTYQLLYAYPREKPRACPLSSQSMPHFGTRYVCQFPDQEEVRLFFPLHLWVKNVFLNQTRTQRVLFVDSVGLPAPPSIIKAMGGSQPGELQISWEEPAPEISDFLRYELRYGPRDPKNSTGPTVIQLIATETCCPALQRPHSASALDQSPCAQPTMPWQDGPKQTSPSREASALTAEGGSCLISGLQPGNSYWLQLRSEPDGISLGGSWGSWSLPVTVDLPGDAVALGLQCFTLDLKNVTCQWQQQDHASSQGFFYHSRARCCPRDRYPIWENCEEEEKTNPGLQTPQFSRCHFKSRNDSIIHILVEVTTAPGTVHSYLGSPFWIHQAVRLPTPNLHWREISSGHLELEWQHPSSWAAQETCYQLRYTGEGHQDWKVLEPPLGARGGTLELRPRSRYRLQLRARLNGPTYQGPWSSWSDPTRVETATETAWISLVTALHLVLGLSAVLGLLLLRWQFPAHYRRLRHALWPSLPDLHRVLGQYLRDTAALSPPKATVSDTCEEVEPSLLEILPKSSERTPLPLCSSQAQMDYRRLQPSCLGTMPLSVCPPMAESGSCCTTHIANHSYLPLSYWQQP
Nature of the assay: Thrombopoietic activity: proliferation of TPO dependent BaF/hTPOR cells (WST-1, absorbance at 450 nm). The class given is cell-based. The conditions noted are these: 20 h + 4 h WST-1, ED50 = half concentration of the concentration showing the maximum thrombopoietic activity. In a few lines: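 Proliferation read-out: WST-1 absorbance at 450 nm after 20 h compound exposure plus 4 h reagent, using IL-3-deprived BaF/hTPOR cells (5×10^4 per well) dependent on human TPO receptor signalling. ED50 defined as half the concentration producing maximal activity.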

By pEC50 is commonly meant the negative decadic logarithm of the EC50, by convention in mol/L. Take `CC(=Cc1c(F)cc(C(=O)Nc2nc(-c3cccc(CCCOCCC(C)(C)C)c3F)cs2)cc1F)C(=O)O` [Compound B40, 3-[2,6-difluoro-4-(4-{3-[3-(3,3-dimethylbutyloxy)propyl]-2-fluorophenyl}thiazol-2-ylcarbamoyl)phenyl]-2-methylacrylic acid]: where the note is “Table 1”, the pEC50 was 9.06.
The same measure, in the same setting: the figure for `COc1c(COCCC(C)(C)C)cccc1-c1csc(NC(=O)c2cc(F)c(/C=C(\C)C(=O)O)c(F)c2)n1` [Compound B1934, (E)-3-(4-{4-[3-(3,3-dimethylbutyloxymethyl)-2-methyloxyphenyl]thiazol-2-ylcarbamoyl}-2,6-difluorophenyl)-2-methylacrylic acid] is 7.88; for `CCCCCC(OC)c1cccc(-c2csc(NC(=O)c3cc(Cl)c(C=C(C)C(=O)O)c(Cl)c3)n2)c1F` (stereo not drawn) [Compound B58, 3-(2,6-dichloro-4-{4-[2-fluoro-3-(1-methyloxyhexyl)phenyl]thiazol-2-ylcarbamoyl}phenyl)-2-methylacrylic acid] it is 8.82; for `CCCCOCCCC(OCCCC)c1cccc(-c2csc(NC(=O)c3cc(F)c(C=C(C)C(=O)O)c(F)c3)n2)c1F` (stereo not drawn) [Compound B51, 3-(4-{4-[3-(1,4-dibutyloxybutyl)-2-fluorophenyl]thiazol-2-ylcarbamoyl}-2,6-difluorophenyl)-2-methylacrylic acid] it is 9.17.
Same read-out and setting: the value for `COc1c(COCCCC(C)C)cccc1-c1csc(NC(=O)c2cc(Cl)c(/C=C(\C)C(=O)O)c(Cl)c2)n1` [Compound B1940] was 7.73; that for `COC(CCC(C)C)c1cccc(-c2csc(NC(=O)c3cc(Cl)c(C=C(C)C(=O)O)c(Cl)c3)n2)c1F` (stereo not drawn) [Compound B60, 3-(2,6-dichloro-4-{4-[2-fluoro-3-(1-methyloxy-4-methylpentyl)phenyl]thiazol-2-ylcarbamoyl}phenyl)-2-methylacrylic acid] was 9.12.
Same read-out and setting: the value for `CCCCCCCCOc1cccc(-c2csc(NC(=O)c3cc(Cl)c(/C=C(\C)C(=O)O)c(Cl)c3)n2)c1OC` [Compound B2005, (E)-3-{2,6-dichloro-4-[4-(2-methyloxy-3-octyloxyphenyl)thiazol-2-ylcarbamoyl]phenyl}-2-methylacrylic acid] was 7.99; that for `CCCCCCCCCC(OC)c1cccc(-c2csc(NC(=O)c3cc(F)c(/C=C(\C)C(=O)O)c(F)c3)n2)c1OCC` (stereo not drawn) [Compound B2099, (E)-3-(4-{4-[2-ethyloxy-3-(1-methyloxydecyl)phenyl]thiazol-2-ylcarbamoyl}-2,6-difluorophenyl)-2-methylacrylic acid] was 8.54; that for `COc1c(-c2csc(NC(=O)c3cc(F)c(/C=C(\C)C(=O)O)c(F)c3)n2)cccc1C(CC(C)(C)C)OC` (stereo not drawn) [Compound B349, (E)-3-(2,6-difluoro-4-{4-[2-methyloxy-3-(1-methyloxy-3,3-dimethylbutyl)phenyl]thiazol-2-ylcarbamoyl}phenyl)-2-methylacrylic acid] was 7.77.
Consider `COc1c(OCCC2CCCCC2)cccc1-c1csc(NC(=O)c2cc(F)c(/C=C(\C)C(=O)O)c(F)c2)n1` [Compound B1916], for which the pEC50 (Table 1) is 7.89.
As to `CO/C(=C\c1c(F)cc(C(=O)Nc2nc(-c3cccc(CCCOCC(C)(C)C)c3)c(OC)s2)cc1F)C(=O)O` [Compound B1900, (Z)-3-[4-(4-{3-[3-(2,2-dimethylpropyloxy)propyl]phenyl}-5-methyloxythiazol-2-ylcarbamoyl)-2,6-difluorophenyl]-2-methyloxyacrylic acid], the pEC50 (Table 2) was 7.64.
In the case of `COc1c(CCOCC2CCCCC2)cccc1-c1csc(NC(=O)c2cc(F)c(/C=C(\C)C(=O)O)c(F)c2)n1` [Compound B1957], for the setting “Table 1”, the negative-log EC50 (pEC50) was 7.89.
Take `CCCOCCCc1cccc(-c2csc(NC(=O)c3cc(F)c(/C=C(\C)C(=O)O)c(F)c3)n2)c1OC` [Compound B380, (E)-3-(2,6-difluoro-4-{4-[2-methyloxy-3-(3-propyloxypropyl)phenyl]thiazol-2-ylcarbamoyl}phenyl)-2-methylacrylic acid]: the negative-log EC50 (pEC50) (Table 1) is 7.63 and the pEC50 (Table 2) was 7.63.
With `CC(=Cc1c(F)cc(C(=O)Nc2nc(-c3cccc(CCCOCC(C)(C)C)c3F)cs2)cc1F)C(=O)O` [Compound B20], the negative logarithm of the EC50 (pEC50) (Table 1) was 9.09.
The same measure, in the same setting: the value for `CCOC(c1cccc(-c2csc(NC(=O)c3cc(F)c(C=C(C)C(=O)O)c(F)c3)n2)c1F)C1CCCCC1` (stereo not drawn) [Compound B6, 3-(4-{4-[3-(1-cyclohexyl-1-ethyloxymethyl)-2-fluorophenyl]thiazol-2-ylcarbamoyl}-2,6-difluorophenyl)-2-methylacrylic acid] was 8.62; that for `COc1c(CCCOCCC(C)C)cccc1-c1csc(NC(=O)c2cc(F)c(/C=C(\C)C(=O)O)c(F)c2)n1` [Compound B1851, (E)-3-[2,6-difluoro-4-(4-{2-methyloxy-3-[3-(3-methylbutyloxy)propyl]phenyl}thiazol-2-ylcarbamoyl)phenyl]-2-methylacrylic acid] was 7.77; that for `CCC(CC)COCCCc1cccc(-c2csc(NC(=O)c3cc(F)c(C=C(C)C(=O)O)c(F)c3)n2)c1F` [Compound B43, 3-[2,6-difluoro-4-(4-{3-[3-(2-ethylbutyloxy)propyl]-2-fluorophenyl}thiazol-2-ylcarbamoyl}phenyl)-2-methylacrylic acid] was 8.78.
On to `CCCCCCCCCCOCc1cccc(-c2csc(NC(=O)c3cc(Cl)c(C=C(C)C(=O)O)c(Cl)c3)n2)c1F` [Compound B76, 3-{2,6-dichloro-4-[4-(3-n-decyloxymethyl-2-fluorophenyl)thiazol-2-ylcarbamoyl]phenyl}-2-methylacrylic acid], for which the pEC50 (Table 1) was 8.53.
As to `CO/C(=C\c1c(F)cc(C(=O)Nc2nc(-c3cccc(C(CCOC(C)C)OC)c3F)cs2)cc1F)C(=O)O` (stereo not drawn) [Compound B2012, (Z)-3-(2,6-difluoro-4-{4-[2-fluoro-3-(3-isopropyloxy-1-methyloxypropyl)phenyl]thiazol-2-ylcarbamoyl}phenyl)-2-methyloxyacrylic acid], where the note is “Table 2”, the pEC50 is 7.62.
For the molecule `C/C(=C\c1c(F)cc(C(=O)Nc2nc3c(s2)COc2c-3cccc2C(C)C)cc1F)C(=O)O` [Compound A1309, (E)-3-[2,6-difluoro-4-(6-isopropyl-4H-chromeno[4,3-d]thiazol-2-ylcarbamoyl)phenyl]-2-methylacrylic acid], the pEC50 (Table 1) was 7.89.
In the case of `CCCCOC(CCCC)c1cccc(-c2csc(NC(=O)c3cc(Cl)c(C=C(C)C(=O)O)c(Cl)c3)n2)c1F` (stereo not drawn) [Compound B87, 3-(4-{4-[3-(1-n-butyloxypentyl)-2-fluorophenyl]thiazol-2-ylcarbamoyl}-2,6-dichlorophenyl)-2-methylacrylic acid], the pEC50 (Table 1) is 9.21.
Still for that read-out and setting: the value for `CCCOC(c1cccc(-c2csc(NC(=O)c3cc(Cl)c(/C=C(\C)C(=O)O)c(Cl)c3)n2)c1OC)C1CCCCC1` (stereo not drawn) [Compound B1102] was 8.54; that for `CCOC(c1cccc(-c2csc(NC(=O)c3cc(F)c(C=C(C)C(=O)O)c(F)c3)n2)c1F)C(C)(C)C` (stereo not drawn) [Compound B10, 3-(2,6-difluoro-4-{4-[3-(1-ethyloxy-2,2-dimethylpropyl)-2-fluorophenyl]thiazol-2-ylcarbamoyl}phenyl)-2-methylacrylic acid] was 8.72.
On the same count and under the same terms, the value for `C/C(=C\c1c(Cl)cc(C(=O)Nc2nc3c(s2)COc2c-3cccc2C(C)C)cc1Cl)C(=O)O` [Compound A1312, (E)-3-[2,6-dichloro-4-(6-isopropyl-4H-chromeno[4,3-d]thiazol-2-ylcabamoyl)phenyl]-2-methylacrylic acid] was 7.97; that for `COC(c1cccc(-c2csc(NC(=O)c3cc(F)c(C=C(C)C(=O)O)c(F)c3)n2)c1F)C(C)(C)C` (stereo not drawn) [Compound B13, 3-(2,6-difluoro-4-{4-[2-fluoro-3-(1-methyloxy-2,2-dimethylpropyl)phenyl]thiazol-2-ylcarbamoyl}phenyl)-2-methylacrylic acid] was 9.00.
The same measure, in the same setting: the figure for `COc1c(COCC(C)(C)C)cccc1-c1csc(NC(=O)c2cc(F)c(/C=C(\C)C(=O)O)c(F)c2)n1` [Compound B1933, (E)-3-(4-{4-[3-(2,2-dimethylpropyloxymethyl)-2-methyloxyphenyl]thiazol-2-ylcarbamoyl}-2,6-difluorophenyl)-2-methylacrylic acid] is 8.10; for `CCCCCCc1cccc2c1OCc1sc(NC(=O)c3cc(Cl)c(/C=C(\C)C(=O)O)c(Cl)c3)nc1-2` [Compound A1316, (E)-3-[2,6-dichloro-4-(6-hexyl-4H-chromeno[4,3-d]thiazol-2-ylcabamoyl)phenyl]-2-methylacrylic acid] it is 8.28; for `COc1c(-c2csc(NC(=O)c3cc(Cl)c(/C=C(\C)C(=O)O)c(Cl)c3)n2)cccc1C(CC(C)(C)C)OC` (stereo not drawn) [Compound B1054, (E)-3-(2,6-dichloro-4-{4-[2-methyloxy-3-(1-methyloxy-3,3-dimethylbutyl)phenyl]thiazol-2-ylcarbamoyl}phenyl)-2-methylacrylic acid] it is 7.70.
Regarding `COc1c(CCOCCC(C)C)cccc1-c1csc(NC(=O)c2cc(F)c(/C=C(\C)C(=O)O)c(F)c2)n1` [Compound B1954], the negative logarithm of the EC50 (pEC50) (Table 1) was 7.89.

The values above are taken from patent publication US7601746B2 (Shionogi & Co., Ltd., priority 2003, dated 2009).
